Assay results from PMC10794144, “A novel antibiotic class targeting the lipopolysaccharide transporter” (Nature, 2024).
Values after ≈ are worked out from the molar mass of the structure shown. Read-outs that look alike come from different tables or passages of the source.

System: A. baumannii
Assay: microbe, parasite or virus in culture
Outline: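 Values come from CLSI-guided (M07, M100) broth microdilution in CAMHB. Endpoint: lowest concentration halting growth, judged by naked eye or by OD600 plateau.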

CN1C(=O)[C@H](CCCCN)NC(=O)[C@H](CCCN)NCc2cccnc2Sc2c(Cl)ccc(Cl)c2CNC(=O)[C@@H]1Cc1c[nH]c2ccccc12 [RO7075573]
MIC 80% (ATCC 17978, Study LGC301026): 0.12 µg/mL (≈ 0.162 µM) | MIC 100% (ATCC 17978, Study LGC301026): 0.12 µg/mL (≈ 0.162 µM) | MIC 80% (ATCC 17978, Study LGC308175): ≤0.06 µg/mL | MIC 100% (ATCC 17978, Study LGC308175): ≤0.06 µg/mL | MIC 80% (ATCC 19606, Study LGC281440): 0.12 µg/mL (≈ 0.162 µM) | MIC 100% (ATCC 19606, Study LGC281440): 0.12 µg/mL (≈ 0.162 µM) | MIC 80% (ATCC 19606, Study LGC282160): 0.25 µg/mL (≈ 0.338 µM) | MIC 100% (ATCC 19606, Study LGC282160): 0.25 µg/mL (≈ 0.338 µM) | MIC 80% (ATCC 19606, Study LGC284879): 0.25 µg/mL (≈ 0.338 µM) | MIC 100% (ATCC 19606, Study LGC284879): 0.25 µg/mL (≈ 0.338 µM) | MIC 80% (ATCC 19606, Study LGC285582): 0.12 µg/mL (≈ 0.162 µM) | MIC 100% (ATCC 19606, Study LGC285582): 0.25 µg/mL (≈ 0.338 µM) | MIC 80% (ATCC 19606, Study LGC286210): 0.12 µg/mL (≈ 0.162 µM) | MIC 100% (ATCC 19606, Study LGC286210): 0.12 µg/mL (≈ 0.162 µM) | MIC 80% (ATCC 19606, Study LGC293598): 0.12 µg/mL (≈ 0.162 µM) | MIC 100% (ATCC 19606, Study LGC293598): 0.25 µg/mL (≈ 0.338 µM) | MIC 80% (ATCC 19606, Study LGC294355): 0.12 µg/mL (≈ 0.162 µM) | MIC 100% (ATCC 19606, Study LGC294355): 0.12 µg/mL (≈ 0.162 µM) | MIC 80% (ATCC 19606, Study LGC295147): 0.25 µg/mL (≈ 0.338 µM) | MIC 100% (ATCC 19606, Study LGC295147): 0.25 µg/mL (≈ 0.338 µM) | MIC 80% (ATCC 19606, Study LGC296813): 0.12 µg/mL (≈ 0.162 µM) | MIC 100% (ATCC 19606, Study LGC296813): 0.25 µg/mL (≈ 0.338 µM) | MIC 80% (ATCC 19606, Study LGC299544): 0.12 µg/mL (≈ 0.162 µM) | MIC 100% (ATCC 19606, Study LGC299544): 0.12 µg/mL (≈ 0.162 µM) | MIC 80% (ATCC 19606, Study LGC301026): 0.12 µg/mL (≈ 0.162 µM) | MIC 100% (ATCC 19606, Study LGC301026): 0.25 µg/mL (≈ 0.338 µM) | MIC 80% (ATCC 19606, Study LGC308175): 0.12 µg/mL (≈ 0.162 µM) | MIC 100% (ATCC 19606, Study LGC308175): 0.12 µg/mL (≈ 0.162 µM) | MIC 80% (ATCC 19606, Study ROC010): 0.25 µg/mL (≈ 0.338 µM) | MIC 100% (ATCC 19606, Study ROC010): 0.5 µg/mL (≈ 0.676 µM) | MIC 80% (ATCC 19606, Study ROC012): 0.12 µg/mL (≈ 0.162 µM) | MIC 100% (ATCC 19606, Study ROC012): 0.25 µg/mL (≈ 0.338 µM) | MIC90 (Acinetobacter baumannii, 10 MDR isolates, CAMHB, MCPs read at 80% growth inhibition): 0.5 µg/mL (≈ 0.676 µM) | MIC (Acinetobacter baumannii, ATCC17978, ATCC 17978, CAMHB, MCPs read at 80% inhibition): 0.12 µg/mL (≈ 0.162 µM) | MIC (Acinetobacter baumannii, ATCC17978, ATCC 17978, CAMHB, one replicate, MCPs read at 80% growth inhibition): ≤ 0.06 µg/mL | MIC (Acinetobacter baumannii, ATCC19606, ATCC 19606, CAMHB, MCPs read at 80% growth inhibition): 0.12 µg/mL (≈ 0.162 µM) | MIC (Acinetobacter baumannii, ATCC19606, ATCC 19606, CAMHB, MCPs read at 80% inhibition): 0.12 µg/mL (≈ 0.162 µM) | MIC (Acinetobacter baumannii, ROB08701, CAMHB, MCPs read at 80% inhibition): 0.12 µg/mL (≈ 0.162 µM) | MIC (Acinetobacter baumannii, ROB08702, CAMHB, MCPs read at 80% inhibition): 0.12 µg/mL (≈ 0.162 µM) | MIC (Acinetobacter baumannii, ROB08703, CAMHB, MCPs read at 80% inhibition): 0.25 µg/mL (≈ 0.338 µM) | MIC (Acinetobacter baumannii, ROB08704, CAMHB, MCPs read at 80% inhibition): 0.5 µg/mL (≈ 0.676 µM) | MIC (Acinetobacter baumannii, ROB08705, CAMHB, MCPs read at 80% inhibition): ≤ 0.06 µg/mL | MIC (Acinetobacter baumannii, ROB08706, CAMHB, MCPs read at 80% inhibition): 0.5 µg/mL (≈ 0.676 µM) | MIC (Acinetobacter baumannii, ROB08707, CAMHB, MCPs read at 80% inhibition): 0.12 µg/mL (≈ 0.162 µM) | MIC (Acinetobacter baumannii, ROB08708, CAMHB, MCPs read at 80% inhibition): 0.12 µg/mL (≈ 0.162 µM) | MIC (Acinetobacter baumannii, ROB08709, CAMHB, MCPs read at 80% inhibition): 0.12 µg/mL (≈ 0.162 µM) | MIC (Acinetobacter baumannii, ROB08710, CAMHB, MCPs read at 80% inhibition): 0.12 µg/mL (≈ 0.162 µM) | MIC (Acinetobacter baumannii, read-out: MIC read at 80% growth inhibition, CAMHB): 2 µg/mL (≈ 2.7 µM) | MIC (Acinetobacter baumannii, read-out: MIC read at 100% growth inhibition, CAMHB): > 64 µg/mL | MIC 80% (ROB08701, Study LGC281440): 0.12 µg/mL (≈ 0.162 µM) | MIC 100% (ROB08701, Study LGC281440): 0.25 µg/mL (≈ 0.338 µM) | MIC 80% (ROB08701, Study LGC282160): 0.12 µg/mL (≈ 0.162 µM) | MIC 100% (ROB08701, Study LGC282160): 1 µg/mL (≈ 1.35 µM) | MIC 80% (ROB08701, Study LGC284879): 0.25 µg/mL (≈ 0.338 µM) | MIC 100% (ROB08701, Study LGC284879): 0.5 µg/mL (≈ 0.676 µM) | MIC 80% (ROB08701, Study LGC285582): 0.12 µg/mL (≈ 0.162 µM) | MIC 100% (ROB08701, Study LGC285582): 64 µg/mL (≈ 86.5 µM) | MIC 80% (ROB08701, Study LGC286210): 0.12 µg/mL (≈ 0.162 µM) | MIC 100% (ROB08701, Study LGC286210): 64 µg/mL (≈ 86.5 µM) | MIC 80% (ROB08701, Study LGC293598): 0.12 µg/mL (≈ 0.162 µM) | MIC 100% (ROB08701, Study LGC293598): 0.25 µg/mL (≈ 0.338 µM) | MIC 80% (ROB08701, Study LGC294355): 0.12 µg/mL (≈ 0.162 µM) | MIC 100% (ROB08701, Study LGC294355): 0.25 µg/mL (≈ 0.338 µM) | MIC 80% (ROB08701, Study LGC295147): 0.12 µg/mL (≈ 0.162 µM) | MIC 100% (ROB08701, Study LGC295147): 0.12 µg/mL (≈ 0.162 µM) | MIC 80% (ROB08701, Study LGC296813): 0.12 µg/mL (≈ 0.162 µM) | MIC 100% (ROB08701, Study LGC296813): 0.25 µg/mL (≈ 0.338 µM) | MIC 80% (ROB08701, Study LGC299544): 0.12 µg/mL (≈ 0.162 µM) | MIC 100% (ROB08701, Study LGC299544): 64 µg/mL (≈ 86.5 µM) | MIC 80% (ROB08701, Study LGC301026): 0.5 µg/mL (≈ 0.676 µM) | MIC 100% (ROB08701, Study LGC301026): 64 µg/mL (≈ 86.5 µM) | MIC 80% (ROB08701, Study LGC308175): 0.12 µg/mL (≈ 0.162 µM) | MIC 100% (ROB08701, Study LGC308175): 64 µg/mL (≈ 86.5 µM) | MIC 80% (ROB08701, Study ROC010): 0.25 µg/mL (≈ 0.338 µM) | MIC 100% (ROB08701, Study ROC010): 0.5 µg/mL (≈ 0.676 µM) | MIC 80% (ROB08701, Study ROC012): 0.12 µg/mL (≈ 0.162 µM) | MIC 100% (ROB08701, Study ROC012): 8 µg/mL (≈ 10.8 µM) | MIC 80% (ROB08702, Study LGC281440): 0.12 µg/mL (≈ 0.162 µM) | MIC 100% (ROB08702, Study LGC281440): >64 µg/mL | MIC 80% (ROB08702, Study LGC282160): 2 µg/mL (≈ 2.7 µM) | MIC 100% (ROB08702, Study LGC282160): >64 µg/mL | MIC 80% (ROB08702, Study LGC284879): 0.12 µg/mL (≈ 0.162 µM) | MIC 100% (ROB08702, Study LGC284879): >64 µg/mL | MIC 80% (ROB08702, Study LGC285582): 0.12 µg/mL (≈ 0.162 µM) | MIC 100% (ROB08702, Study LGC285582): >64 µg/mL | MIC 80% (ROB08702, Study LGC286210): 0.12 µg/mL (≈ 0.162 µM)
